Experimental data from patent US20100137313A1 (ASTRAZENECA AB, priority 2008, published 2010).

Biological target: S. pneumoniae Topoisomerase IV ATPase (ParE) (Streptococcus pneumoniae serotype 4, UniProt Q59961)
Experiment: S. pneumoniae Topoisomerase IV ATPase inhibition
Format: biochemical
Details: values marked * are an average of two or more data points, read-out: % Inh (13 μM) of S. pneumoniae Topoisomerase IV ATPase
Description: S. pneumoniae Topoisomerase IV ATPase Inhibition Activity: Compounds may be tested for inhibition of S. pneumoniae ParE ATPase activity using an ammonium molybdate/malachite green-based phosphate detection assay (Lanzetta, P. A., L. J. Alvarez, P. S. Reinach, and O. A. Candia, 1979, 100: 95-97). Assays are performed in multiwell plates in 30 μl reactions containing: 20 mM Tris buffer pH 8.0, 50 mM ammonium acetate, 8.0 mM magnesium chloride, 0.5 mM ethylenediaminetetraacetic acid, 5% glycerol, 5 mM 1,4-Dithio-DL-threitol, 0.005% Brij-35, 5 μg/ml sheared salmon sperm DNA, 1.25 nM S. pneumoniae ParE, 160 μM ATP, and test compound in dimethylsulfoxide. Reactions are quenched with 30 μl of ammonium molybdate/malachite green detection reagent containing 1.2 mM malachite green hydrochloride, 8.5 mM ammonium molybdate tetrahydrate, and 1 M hydrochloric acid. Plates are read in an absorbance plate reader at 650 nm and percent inhibition values are calculated using dimethylsulfoxide (2%)-containing reactions as 0% inhibition and EDTA-containing ([…]) reactions as 100% inhibition controls. An IC50 measurement of compound potency for each compound can be determined from reactions performed in the presence of 10 different compound concentrations.
Many of the compounds of the invention were tested in an assay substantially similar to the assays described above for measuring the inhibition of E.coli GyrB ATPase, E. coli Topoisomerase IV ATPase, S. aureus GyrB ATPase, and S. pneumoniae Topoisomerase IV ATPase, and had IC50 values of <200 μM in one or more assays.

Sequence of S. pneumoniae Topoisomerase IV ATPase (ParE) (Q59961 whole entry): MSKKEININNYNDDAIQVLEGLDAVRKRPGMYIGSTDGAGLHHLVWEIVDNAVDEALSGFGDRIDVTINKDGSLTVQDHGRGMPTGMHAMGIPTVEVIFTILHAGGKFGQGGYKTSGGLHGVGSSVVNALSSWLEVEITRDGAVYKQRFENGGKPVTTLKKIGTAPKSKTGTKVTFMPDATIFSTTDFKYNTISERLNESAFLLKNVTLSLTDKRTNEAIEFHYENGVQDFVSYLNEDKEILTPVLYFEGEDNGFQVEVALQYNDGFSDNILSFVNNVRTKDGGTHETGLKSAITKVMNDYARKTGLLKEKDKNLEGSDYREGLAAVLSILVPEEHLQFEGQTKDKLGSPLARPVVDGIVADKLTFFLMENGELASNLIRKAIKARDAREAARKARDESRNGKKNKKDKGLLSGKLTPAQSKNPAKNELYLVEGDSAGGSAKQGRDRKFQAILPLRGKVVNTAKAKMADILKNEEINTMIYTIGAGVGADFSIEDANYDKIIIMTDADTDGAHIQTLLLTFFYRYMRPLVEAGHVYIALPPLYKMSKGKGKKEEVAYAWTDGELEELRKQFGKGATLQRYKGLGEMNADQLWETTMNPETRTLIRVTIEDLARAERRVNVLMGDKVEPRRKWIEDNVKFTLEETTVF

SMILES | inhibition at 13 µM [%]
CCCNc1nc(Nc2ccc(F)c(Cl)c2)ncc1-c1cncc(C(=O)O)c1 [Example 218, 5-[2-(3-Chloro-4-fluoro-phenylamino)-4-propylamino-pyrimidin-5-yl]-nicotinic acid] | 80.9
CN(C)CCCNc1nc(Nc2ccc(F)c(Cl)c2)ncc1-c1cn[nH]c1 [Example 20, N^2-(3-chloro-4-fluorophenyl)-N^4-[3-(dimethylamino)propyl]-5-(1H-pyrazol-4-yl)pyrimidine-2,4-diamine] | 74.6
COc1cc(C)cc(Nc2ncc(-c3cnc(OC)c(-c4n[nH]c(=O)o4)c3)c(-n3nc(C(F)(F)F)cc3C)n2)c1 [Example 1170, 5-(2-methoxy-5-{2-[(3-methoxy-5-methylphenyl)amino]-4-[5-methyl-3-(trifluoromethyl)-1H-pyrazol-1-yl]pyrimidin-5-yl}pyridin-3-yl)-1,3,4-oxadiazol-2(3H)-one] | 100
O=C(O)c1cc(-c2cnc(Nc3ccc(F)c(Cl)c3)nc2N2CCOCC2)ccn1 [Example 493, 4-{2-[(3-chloro-4-fluorophenyl)amino]-4-(morpholin-4-yl)pyrimidin-5-yl}pyridine-2-carboxylic acid] | 9
O=C(O)c1cc(-c2cnc(Nc3ccc(F)c(Cl)c3)nc2-n2ccc(C(F)(F)F)n2)cnc1OCCn1ccnc1 [Example 797, 5-{2-[(3-chloro-4-fluorophenyl)amino]-4-[3-(trifluoromethyl)-1H-pyrazol-1-yl]pyrimidin-5-yl}-2-[2-(1H-imidazol-1-yl)ethoxy]pyridine-3-carboxylic acid] | 100
COc1cc(Nc2ncc(-c3cnc(OCCNC(C)=O)c(C(=O)NS(C)(=O)=O)c3)c(-n3nc(C(F)(F)F)cc3C)n2)cc(OC)c1 [Example 969, 2-(2-acetamidoethoxy)-5-(2-(3,5-dimethoxyphenylamino)-4-(5-methyl-3-(trifluoromethyl)-1H-pyrazol-1-yl)pyrimidin-5-yl)-N-(methylsulfonyl)nicotinamide] | 100
CC(=O)c1cccc(Nc2ncc(-c3cccc(/C=C/C(=O)O)c3)c(-n3ccc(C(F)(F)F)n3)n2)c1 [Example 688, (2E)-3-(3-{2-[(3-acetylphenyl)amino]-4-[3-(trifluoromethyl)-1H-pyrazol-1-yl]pyrimidin-5-yl}phenyl)prop-2-enoic acid] | 99
O=C(O)/C=C/c1cccc(-c2cnc(Nc3ccc(F)c(Cl)c3)nc2-n2cccc2)c1 [Example 315, (2E)-3-(3-{2-[(3-chloro-4-fluorophenyl)amino]-4-(1H-pyrrol-1-yl)pyrimidin-5-yl}phenyl)prop-2-enoic acid] | 62.8
COc1ncc(-c2cnc(Nc3cc(Cl)cc(C#N)c3)nc2-n2ccc(C(F)(F)F)n2)cc1C(=O)O [Example 917, 5-(2-(3-chloro-5-cyanophenylamino)-4-(3-(trifluoromethyl)-1H-pyrazol-1-yl)pyrimidin-5-yl)-2-methoxynicotinic acid] | 100
COc1cc(F)cc(Nc2ncc(-c3ccc(C(=O)O)s3)c(-n3ccc(C(F)(F)F)n3)n2)c1 [Example 887, 5-(2-(3-fluoro-5-methoxyphenylamino)-4-(3-(trifluoromethyl)-1H-pyrazol-1-yl)pyrimidin-5-yl)thiophene-2-carboxylic acid] | 100
COc1ncc(-c2cnc(Nc3ccc(F)c(Cl)c3)nc2-n2nc(C(F)(F)F)cc2C)cc1C(=O)NS(C)(=O)=O [Example 1025, 5-(2-(3-Chloro-4-fluorophenylamino)-4-(5-methyl-3-(trifluoromethyl)-1H-pyrazol-1-yl)pyrimidin-5-yl)-2-methoxy-N-(methylsulfonyl)nicotinamide] | 98
Cc1cc(C)cc(Nc2ncc(-c3cc(C(=O)O)cnc3OCCN(C)C)c(-n3nc(C(F)(F)F)cc3C)n2)c1 [Example 1145, 6-(2-(dimethylamino)ethoxy)-5-(2-(3,5-dimethylphenylamino)-4-(5-methyl-3-(trifluoromethyl)-1H-pyrazol-1-yl)pyrimidin-5-yl)nicotinic acid] | 100
CC(Oc1ncc(-c2cnc(Nc3ccc(F)c(Cl)c3)nc2-n2ccc(C(F)(F)F)n2)cc1C(=O)O)c1ccncc1 (stereo not shown) [Example 793, 5-{2-[(3-chloro-4-fluorophenyl)amino]-4-[3-(trifluoromethyl)-1H-pyrazol-1-yl]pyrimidin-5-yl}-2-[1-(pyridin-4-yl)ethoxy]pyridine-3-carboxylic acid] | 100
COc1cc(C)cc(Nc2ncc(-c3cnc(OC)c(C(=O)NS(C)(=O)=O)c3)c(-n3ccc(C(F)(F)F)n3)n2)c1 [Example 856, 2-methoxy-5-{2-[(3-methoxy-5-methylphenyl)amino]-4-[3-(trifluoromethyl)-1H-pyrazol-1-yl]pyrimidin-5-yl}-N-(methylsulfonyl)pyridine-3-carboxamide] | 100
CCOC(=O)c1cncc(-c2cnc(Nc3ccc(F)c(Cl)c3)nc2N2CCCCCC2)c1 [Example 127, ethyl 5-[4-(azepan-1-yl)-2-[(3-chloro-4-fluorophenyl)amino]pyrimidin-5-yl]pyridine-3-carboxylate] | 26.5
COCCCNc1nc(Nc2ccc(F)c(Cl)c2)ncc1-c1nc(C(=O)O)cs1 [Example 912, 2-(2-(3-chloro-4-fluorophenylamino)-4-(3-methoxypropylamino)pyrimidin-5-yl)thiazol-4-carboxylic acid] | 99
CCOC(=O)c1cc2cc(-c3cnc(Nc4ccc(F)c(Cl)c4)nc3N3CCOCC3)ccc2[nH]1 [Example 1054, Ethyl 5-(2-(3-chloro-4-fluorophenylamino)-4-morpholinopyrimidin-5-yl)-1H-indole-2-carboxylate] | 0
Cc1ncsc1CCNc1nc(Nc2ccc(F)c(Cl)c2)ncc1-c1cccc(/C=C/C(=O)O)c1 [Example 269, (2E)-3-[3-(2-[(3-chloro-4-fluorophenyl)amino]-4-{[2-(4-methyl-1,3-thiazol-5-yl)ethyl]amino}pyrimidin-5-yl)phenyl]prop-2-enoic acid] | 78
COc1cc(Nc2ncc(-c3cncc(C(=O)NCCS(C)(=O)=O)c3)c(-n3nc(C(F)(F)F)cc3C)n2)cc(OC)c1 [Example 685, 5-{2-[(3,5-dimethoxyphenyl)amino]-4-[5-methyl-3-(trifluoromethyl)-1H-pyrazol-1-yl]pyrimidin-5-yl}-N-[2-(methylsulfonyl)ethyl]pyridine-3-carboxamide] | 100
COc1ncc(-c2cnc(Nc3ccc(F)c(Cl)c3)nc2N[C@H]2CCOC2)cn1 [Example 941, (S)-N2-(3-chloro-4-fluorophenyl)-2′-methoxy-N4-(tetrahydrofuran-3-yl)-5,5′-bipyrimidine-2,4-diamine] | 54
COc1ncc(-c2cnc(Nc3cc(C)cc(C)c3)nc2-n2nc(C(F)(F)F)cc2C)cc1C(=O)NS(=O)(=O)CCCN1CCOCC1 [Example 829, 5-{2-[(3,5-dimethylphenyl)amino]-4-[5-methyl-3-(trifluoromethyl)-1H-pyrazol-1-yl]pyrimidin-5-yl}-2-methoxy-N-{[3-(morpholin-4-yl)propyl]sulfonyl}pyridine-3-carboxamide] | 100
COc1cc(Nc2ncc(-c3cnc(OCCCS(C)(=O)=O)c(C(=O)NS(=O)(=O)C(F)(F)F)c3)c(-n3ccc(C(F)(F)F)n3)n2)cc(OC)c1 [Example 972, 5-(2-(3,5-dimethoxyphenylamino)-4-(3-(trifluoromethyl)-1H-pyrazol-1-yl)pyrimidin-5-yl)-2-(3-(methylsulfonyl)propoxy)-N-(trifluoromethylsulfonyl)nicotinamide] | 100
COc1cc(F)cc(Nc2ncc(-c3cnc(OC)c(C(=O)O)c3)c(-n3nc(C(F)(F)F)cc3C)n2)c1 [Example 915, 5-(2-(3-fluoro-5-methoxyphenylamino)-4-(5-methyl-3-(trifluoromethyl)-1H-pyrazol-1-yl)pyrimidin-5-yl)-2-methoxynicotinic acid] | 100
O=C(O)/C=C/c1cccc(-c2cnc(Nc3ccc(F)c(Cl)c3)cc2N2CCOCC2)c1 [Example 1129] | 83
CCOC(=O)c1cncc(-c2cnc(Nc3ccc(F)c(Cl)c3)nc2N[C@H]2CC[C@H](O)CC2)c1 [Example 128, ethyl 5-[2-[(3-chloro-4-fluorophenyl)amino]-4-[(trans-4-hydroxycyclohexyl)amino]pyrimidin-5-yl]pyridine-3-carboxylate] | -16.2
CCS(=O)(=O)NC(=O)c1cc(-c2cnc(Nc3cc(OC)cc(OC)c3)nc2-n2ccc(C(F)(F)F)n2)cn(CCOC)c1=O [Example 1164] | 100
O=C(O)c1cncc(-c2cnc(Nc3ccc(F)c(Cl)c3)nc2NCCc2cccnc2)c1 [Example 229, 5-[2-(3-Chloro-4-fluoro-phenylamino)-4-(2-pyridin-3-yl-ethylamino)-pyrimidin-5-yl]-nicotinic acid] | 85
COc1cc(Nc2ncc(-c3cccnc3)c(-n3nc(C(F)(F)F)cc3C)n2)cc(C(F)(F)F)c1 [Example 884, N-(3-methoxy-5-(trifluoromethyl)phenyl)-4-(5-methyl-3-(trifluoromethyl)-1H-pyrazol-1-yl)-5-(pyridin-3-yl)pyrimidin-2-amine] | 100
